These results are taken from ChEMBL document CHEMBL5584228, “Novel saturated 1,2,4-trioxanes and their antimalarial activity against multidrug resistant Plasmodium yoelii nigeriensis in Swiss mice model via oral route” (2024).

Structures are written as SMILES. Active and inactive are the calls of the source. The calls are words filed in the database; no cut-off is given here. Some results are limits rather than exact numbers.

Assay [1] concerns Plasmodium yoelii nigeriensis. As to the kind of experiment: Antimalarial activity against multi-drug resistant Plasmodium yoelii nigeriensis infected in swiss mouse model at 96 mg/kg, po administered for 4 days and measured within 6 to 8 days. The note with it: time 6-8 day. The assay is classed as functional, organism-based.
Assay [2] concerns Plasmodium yoelii nigeriensis. As to the kind of experiment: Antimalarial activity against multi-drug resistant Plasmodium yoelii nigeriensis infected in swiss mouse model assessed as suppression of parasitemia at 96 mg/kg, po administered for 4 days relative to control. It is filed as functional. The settings on record: time 4 day.
For assay [3], the system named is Plasmodium yoelii nigeriensis. As to the kind of experiment: Antimalarial activity against multi-drug resistant Plasmodium yoelii nigeriensis infected in swiss mouse model assessed as suppression of parasitemia at 48 mg/kg, po administered for 4 days relative to control. The assay is classed as functional. The settings on record: time 4 day.
The test system of assay [4] is Plasmodium yoelii nigeriensis. Briefly: Antimalarial activity against multi-drug resistant Plasmodium yoelii nigeriensis infected in swiss mouse model at 24 mg/kg, po administered for 4 days and measured within 6 to 8 days. The note with it: time 6-8 day. It is filed as functional, organism-based.
Assay [5] has as its system Plasmodium yoelii nigeriensis. As to the kind of experiment: Antimalarial activity against multi-drug resistant Plasmodium yoelii nigeriensis infected in swiss mouse model assessed as suppression of parasitemia at 24 mg/kg, po administered for 4 days relative to control. The settings on record: time 4 day. The assay is classed as functional.
The test system of assay [6] is Plasmodium yoelii nigeriensis. Briefly: Antimalarial activity against multi-drug resistant Plasmodium yoelii nigeriensis infected in swiss mouse model at 48 mg/kg, po administered for 4 days and measured within 6 to 8 days. It is filed as functional, organism-based. The settings on record: time 6-8 day.
In assay [7] the test system is Plasmodium yoelii nigeriensis. Briefly: Antimalarial activity against multi-drug resistant Plasmodium yoelii nigeriensis infected in swiss mouse model assessed as suppression of parasitemia at 12 mg/kg, po administered for 4 days relative to control. The settings on record: time 4 day. The assay is classed as functional.
The subject of assay [8] is Plasmodium yoelii nigeriensis. Briefly: Antimalarial activity against multi-drug resistant Plasmodium yoelii nigeriensis infected in swiss mouse model assessed as animal survival at 12 to 48 mg/kg, po administered for 4 days and measured after 28 days. The note with it: dose 12-48 mg/kg, time 28 day. The assay is classed as functional.
The subject of assay [9] is Plasmodium yoelii nigeriensis. Briefly: Antimalarial activity against multi-drug resistant Plasmodium yoelii nigeriensis infected in swiss mouse model assessed as suppression of parasitemia at 6 mg/kg, po administered for 4 days relative to control. The settings on record: time 4 day. The assay is classed as functional.
In assay [10] the test system is Plasmodium yoelii nigeriensis. Briefly: Antimalarial activity against multi-drug resistant Plasmodium yoelii nigeriensis infected in swiss mouse model at 12 mg/kg, po administered for 4 days and measured within 6 to 8 days. It is filed as functional, organism-based. The settings on record: time 6-8 day.

For `C=C(c1ccc(Oc2cccc3ccccc23)cc1)C1COC2(CCCCC2)OO1` (stereo not drawn), the outcome in assay [1] was inactive. Besides, in assay [2], the Activity stood at 92.81%.
For `C[C@@H](c1ccc(Oc2ccc(-c3ccccc3)cc2)cc1)C1COC2(OO1)C1CC3CC(C1)CC2C3` (stereo partly drawn) the same measures were “inactive” and 90%.
For `C[C@@H](c1ccc(Oc2cccc3ccccc23)cc1)C1COC2(CCCC2)OO1` (stereo partly drawn) the same measures were “inactive” and 100%.
Regarding `C[C@@H](c1ccc(Oc2ccc3ccccc3c2)cc1)C1COC2(CCCC2)OO1` (stereo partly drawn), in [1], the result was Active. For the same compound, the Activity in assay [2] and in assay [3] was 100% throughout.
Consider `C[C@@H](c1ccc(Oc2cccc3ccccc23)cc1)C1COC2(OO1)C1CC3CC(C1)CC2C3` (stereo partly drawn), for which the result in [1] was inactive. Besides, the Activity in assay [2] is recorded as 70%.
As to `C=C(c1ccc(Oc2ccccc2)cc1)C1COC2(CCCC2)OO1` (stereo not drawn), the Activity in assay [2] was 100%.
`C[C@@H](c1ccc(Oc2ccccc2)cc1)C1COC2(CCCC2)OO1` (stereo partly drawn): in assay [1], the outcome was inactive. Also, the Activity in assay [2] came to 80%.
With `C=C(c1ccc(Oc2cccc3ccccc23)cc1)C1COC2(CCCC2)OO1` (stereo not drawn), the result in assay [1] and in [6] was Active. The Activity in assay [2], in assay [5] and in assay [3] was 100% in each case. For the same compound, the outcome in assay [4] was inactive.
As to `C[C@H](c1ccc(Oc2cccc3ccccc23)cc1)C1COC2(OO1)C1CC3CC(C1)CC2C3` (stereo partly drawn), the Activity in assay [2] is 100%.
Turning to `C[C@@H](c1ccc(Oc2cccc3ccccc23)cc1)C1COC2(CCCCC2)OO1` (stereo partly drawn), the outcome in assay [1] was inactive. Further, in [2], the Activity is listed as 100%.
On to `C=C(c1ccc(Oc2ccc(-c3ccccc3)cc2)cc1)C1COC2(OO1)C1CC3CC(C1)CC2C3` (stereo not drawn), for which the Activity in assay [2] came out at 100%.
For the compound `C[C@@H](c1ccc(Oc2ccc(-c3ccccc3)cc2)cc1)C1COC2(CCCCC2)OO1` (stereo partly drawn), the outcome in assay [1] was inactive. For the same compound, the Activity in [2] was determined as 100%.
On to `C=C(c1ccc(Oc2ccccc2)cc1)C1COC2(OO1)C1CC3CC(C1)CC2C3` (stereo not drawn), for which the Activity in [2] came out at 100%.
Turning to `C[C@H](c1ccc(Oc2ccccc2)cc1)C1COC2(CCCC2)OO1` (stereo partly drawn), in [1], the outcome was Active. Further, the figures for the Activity in assay [2] and in assay [3] were 100% and 60%, respectively.
On to `C[C@@H](c1ccc(Oc2ccccc2)cc1)C1COC2(OO1)C1CC3CC(C1)CC2C3` (stereo partly drawn), for which, in assay [1], the result was inactive. Moreover, the Activity in assay [2] came to 100%.
On to `CCO[C@H]1O[C@@H]2O[C@@]3(C)CC[C@H]4[C@H](C)CC[C@@H]([C@H]1C)[C@@]24OO3` [ARTEMOTIL], for which the Activity in assay [5] and in assay [3] was 100% in each case. Besides, the outcome in assay [6] was Active.
With `C[C@H](c1ccc(Oc2ccc(-c3ccccc3)cc2)cc1)C1COC2(CCCC2)OO1` (stereo partly drawn), the Activity in assay [5] turned out to be 100%; in [3], 100%; in [7], 60%.
As to `C[C@H](c1ccc(Oc2ccc(-c3ccccc3)cc2)cc1)C1COC2(CCCCC2)OO1` (stereo partly drawn), the Activity in assay [2] was 100%.
With `C[C@H](c1ccc(Oc2ccc3ccccc3c2)cc1)C1COC2(CCCC2)OO1` (stereo partly drawn), in assay [8], the Survival is >28 days. Moreover, the Activity in [9] is reported as 60%; in [5], 100%; in assay [3] it was 100%; in assay [7], 100%. The result in assay [10] was Active.
In the case of `C[C@H](c1ccc(Oc2ccccc2)cc1)C1COC2(CCCCC2)OO1` (stereo partly drawn), the result in assay [1] was Active. Besides, the Activity is 100% in assay [2] and 80% in assay [3].
For `C=C(c1ccc(Oc2cccc3ccccc23)cc1)C1COC2(OO1)C1CC3CC(C1)CC2C3` (stereo not drawn), the outcome in assay [1] was inactive. Further, the Activity in assay [2] is on record as 93.15%.
The matching figures for `C=C(c1ccc(Oc2ccc(-c3ccccc3)cc2)cc1)C1COC2(CCCCC2)OO1` (stereo not drawn): “inactive” and 84.39%.
In the case of `C=C(c1ccc(Oc2ccc3ccccc3c2)cc1)C1COC2(CCCC2)OO1` (stereo not drawn), the outcome in assay [1] and in assay [6] was Active. Also, the Activity in [2], in assay [5] and in assay [3] was 100% each time. Besides, the result in [4] was inactive.
Regarding `C[C@H](c1ccc(Oc2ccc3ccccc3c2)cc1)C1COC2(OO1)C1CC3CC(C1)CC2C3` (stereo partly drawn), in assay [1], the outcome was Active. Further, the Activity in assay [2] was 100%; in assay [3], 60%.
For the compound `C[C@@H](c1ccc(Oc2ccc3ccccc3c2)cc1)C1COC2(OO1)C1CC3CC(C1)CC2C3` (stereo partly drawn), in assay [1], the outcome was inactive. In addition, the Activity in assay [2] turned out to be 100%.
Take `C=C(c1ccc(Oc2ccc3ccccc3c2)cc1)C1COC2(OO1)C1CC3CC(C1)CC2C3` (stereo not drawn): in [2], the Activity is 100%.
Same read-out and setting: in the case of `C[C@H](c1ccc(Oc2cccc3ccccc23)cc1)C1COC2(CCCCC2)OO1` (stereo partly drawn) it was 100%.
Take `C=C(c1ccc(Oc2ccc(-c3ccccc3)cc2)cc1)C1COC2(CCCC2)OO1` (stereo not drawn): the outcome in [1] was Active. Further, the Activity in [2] and in assay [3] was 100% in each case. The outcome in assay [6] was inactive.
With `C[C@H](c1ccc(Oc2cccc3ccccc23)cc1)C1COC2(CCCC2)OO1` (stereo partly drawn), the Activity in assay [5] came out at 100%; in assay [3], 100%; in assay [7], 80%.
Regarding `C[C@H](c1ccc(Oc2ccccc2)cc1)C1COC2(OO1)C1CC3CC(C1)CC2C3` (stereo partly drawn), the result in assay [1] was Active. The Activity in [2] and in [3] was 100% throughout.
Take `C[C@@H](c1ccc(Oc2ccccc2)cc1)C1COC2(CCCCC2)OO1` (stereo partly drawn): in assay [1], the result was inactive. Further, the Activity in assay [2] is recorded as 100%.
Regarding `C=C(c1ccc(Oc2ccccc2)cc1)C1COC2(CCCCC2)OO1` (stereo not drawn), the Activity in [2] stood at 100%.
With `C[C@@H](c1ccc(Oc2ccc(-c3ccccc3)cc2)cc1)C1COC2(CCCC2)OO1` (stereo partly drawn), the outcome in [1] was inactive. Also, in assay [2], the Activity is 100%.
On to `C[C@H](c1ccc(Oc2ccc(-c3ccccc3)cc2)cc1)C1COC2(OO1)C1CC3CC(C1)CC2C3` (stereo partly drawn), for which the outcome in assay [1] was Active. The Activity in assay [2] and in assay [3] was 100% in each case.
